# In US7754742B2, “Imidazole carboxamides” (Eli Lilly and Company, priority 2008, dated 2010):
# Columns and labels:
# human mGluR2 receptor = target: T1, human mGluR2 receptor (Homo sapiens, UniProt Q14416); experiment: Functional in vitro activity at human mGluR2 receptor (FLIPR calcium response, potentiator mode); type: cell-based; conditions: relative EC50; potentiation of glutamate EC10 response; cells expressing human mGluR2, rat EAAT 1 and Gα15
# T1 construct: expressed in transfected cells; stably expresses human mGluR2, co-transfected with rat EAAT1 and Galpha15
# T1 sequence (Q14416 19-872): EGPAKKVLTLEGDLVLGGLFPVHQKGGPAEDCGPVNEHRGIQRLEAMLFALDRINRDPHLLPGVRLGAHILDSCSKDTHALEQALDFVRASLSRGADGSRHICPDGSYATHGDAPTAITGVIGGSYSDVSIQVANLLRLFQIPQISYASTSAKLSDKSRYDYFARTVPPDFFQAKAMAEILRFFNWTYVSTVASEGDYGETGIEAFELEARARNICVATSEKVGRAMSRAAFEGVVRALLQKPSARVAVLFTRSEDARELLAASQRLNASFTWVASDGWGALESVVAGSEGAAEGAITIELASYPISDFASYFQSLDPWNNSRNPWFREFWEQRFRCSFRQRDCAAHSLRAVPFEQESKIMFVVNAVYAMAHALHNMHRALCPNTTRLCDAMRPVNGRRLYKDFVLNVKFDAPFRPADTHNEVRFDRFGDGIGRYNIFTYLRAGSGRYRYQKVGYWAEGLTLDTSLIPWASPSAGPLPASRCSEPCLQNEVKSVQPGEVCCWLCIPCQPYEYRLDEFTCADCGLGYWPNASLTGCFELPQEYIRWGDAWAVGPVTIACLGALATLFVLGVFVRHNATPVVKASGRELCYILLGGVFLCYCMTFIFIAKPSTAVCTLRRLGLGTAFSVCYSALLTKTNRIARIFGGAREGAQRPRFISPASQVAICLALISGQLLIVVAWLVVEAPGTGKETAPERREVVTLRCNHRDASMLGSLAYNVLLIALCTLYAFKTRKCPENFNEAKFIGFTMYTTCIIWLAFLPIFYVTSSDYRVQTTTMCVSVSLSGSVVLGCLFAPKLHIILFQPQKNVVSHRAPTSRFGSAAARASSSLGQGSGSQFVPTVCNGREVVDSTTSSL
# Source text: Functional in vitro activity at human mGluR2 receptor Cell lines stably expressing the human mGluR2 receptor (see for example Desai, Burnett, Mayne, Schoepp, Mol. Pharmacol. 48, 648-657, 1995) co-transfected with the rat glutamate transporter EAAT 1 (Excitatory Amino Acid Transporter 1) and the Gα15 subunit were used for these studies. The expression of Gα15 allows this Gi-coupled receptors to couple to phospholipase C, resulting in the ability to measure receptor activation by a fluorometric calcium response assay. […]
# Intracellular calcium levels were monitored before and after the addition of compounds using a Fluorometric Imaging Plate Reader (FLIPR, Molecular Devices, Union City, Calif. USA). […] The results were analyzed (GraphPad® Prism v4, Graphpad Software, LaJolla, Calif., USA) to calculate the concentrations of glutamate needed to induce the EC10 responses.
# Compounds were tested in a two-addition FLIPR assay using a 10-point concentration response profile starting at a final concentration of 25 μM (agonist mode) or 12.5 μM (potentiator mode). […] After taking an initial fluorescent read of the cell plate for 5 seconds, compound was added to the cell plate (50 uL per well). […]
# The maximal response was defined as that induced by ECmax (100 μM glutamate). […] Agonist effects were quantified as percent stimulation induced by compound alone relative to the maximal glutamate response. […]
# [1] = tested on: Male Holtzman Sprague-Dawley rats; experiment: Positive differential reinforcement in rats (DRL-72 second schedule); type: in vivo, rat; conditions: reinforced responses divided by total responses, 10 mg/kg, IP, dose 0 group 0.25
# Source text: The differential reinforcement of low rates-72 second (DRL-72) schedule has been extensively used as a screen for clinically effective antidepressant agents including imipramine, fluoxetine, paroxetine and others (Sokolowski J D, Seiden L S. 1999. The behavioral effects of sertraline, fluoxetine, and paroxetine differ on the differential-reinforcement-of-low-rate 72-second operant schedule in the rat. Psychopharm (Berl). 147(2): 153-61). […] As such, compounds which show positive result in differential reinforcement in animals are believed to be useful in treating depression in humans.
# Male Holtzman Sprague-Dawley rats are water restricted (water available 20′ per day following the test session) and trained to lever press for a 4″ access to 0.025 ml of water for each correct response during daily 60 minute sessions. All testing takes place on weekdays only. After successful lever press training, rats are then required to respond under a DRL-24 second schedule, where only lever presses that are separated by 24 seconds are reinforced. Upon stable responding on a DRL-24 second schedule, rats are trained on a DRL-72 second schedule until responding stabilizes at approximately 15% efficiency. […] Response efficiency is recorded as number of reinforced responses divided by total number of responses. […]
# Male Fischer F-344 rats = experiment: Attenuation of stress-induced hyperthermia in rats; type: in vivo, rat; conditions: p.o., 4 hr pretreatment
# Source text: In many anxiety disorders, hyperthermia occurs as part of the pathology and is considered a symptom of the disease. Compounds which attenuate stress-induced hyperthermia in animals are believed to be useful in treating anxiety disorders in humans.
# The conventional and minimally-invasive method for analyzing stress-induced hyperthermia is by measuring body temperature, and stress-induced increases in body temperature, via rectal thermometer. Male Fischer F-344 rats (Harlan, Indianapolis, Ind., USA) weighing between 275-350 g are tested. All animals are individually-housed with food and automated water available ad libitum, and maintained on a 12 h light/dark cycle (lights on at 06:00). Animals are fasted for approximately 12-18 hours before the experiment, which is conducted during the light phase. […]
# After the pretreatment period, rats are taken individually to a brightly lit adjacent room where baseline body temperatures are determined by insertion of a rectal probe lubricated with mineral oil. Body temperature is assessed using a PHYSITEMP BAT-12® Microprobe Thermometer with a PHYSITEMP RET-2® rat rectal probe (Physitemp Instruments Inc., Clifton, N.J., USA). […] Ten minutes later a second body temperature measurement is recorded (T2). […]
structure (smiles),measurement,setting,value
"CC(C)C(=O)c1ccc(OCc2ccc(CNC(=O)c3cn(C)cn3)cc2)c(C(F)(F)F)c1O [Example 1, 1-Methyl-1H-imidazole-4-carboxylic acid 4-(3-hydroxy-4-isobutyryl-2-trifluoromethyl-phenoxymethyl)-benzylamide]",EC50,human mGluR2 receptor,22.5 nM
same,Response Efficiency,[1],0.56
same,T35 dose (dose producing a 35% reduction in stress-induced hyperthermic response relative to vehicle),Male Fischer F-344 rats,3.2 mg/kg
same,melting point,,164.7 °C
